Results: US8858952B2, “Methods and materials for generating T cells” (Mayo Foundation for Medical Education and Research, priority 2009, dated 2014)
Entries after “also recorded” stand apart in the source; their conditions may differ. Where no end group is shown, it is not given here. [ ]: non-standard residue; d: D form. Ava = NCCCCC(=O)O

Tests used:
[1] = tested on: bone marrow-derived DC; test: Cytokine and chemokine multiplex analysis of DC culture supernatant; format: cell-based; settings: DC culture media 48 hours after pulsing, versus native FR74
Protocol: FIG. 14. […] Shown are the concentrations of cytokines within DC culture media 48 hours after pulsing with the indicated polypeptides. Each bar is the mean (±s.e.m.) of duplicates samples. A repeat experiment yielded similar results.
FIG. 15. […] Shown are the concentrations of chemokines within DC culture media 48 hours after pulsing with the indicated polypeptides. Each bar is the mean (±s.e.m.) of duplicate samples. A repeat experiment yielded similar results.
FIG. 24. Modified polypeptides induce different release of IL-6 and IL-12p70. Shown are the concentrations of IL-6 and IL-12p70 within DC culture media 48 hours after pulsing with the indicated polypeptides. Each bar is the mean (±s.e.m.) of duplicate samples. A repeat experiment yielded similar results. Values associate with each bar are the actual mean concentrations measured.
Another potential reason for the enhanced T cell activation is that epitope nesting results in enhancement of cytokines that facilitate the induction of T cell activation. […]
This hypothesis is tested using antibody neutralization. […] Cytokine levels in the sera are quantitated by analyzing 100 μL of each well on a Bio-Plex using Bio-Plex Manager software (ver.4.). […] Both the DC and the T cells can be assessed for expression of the receptors using flow cytometry. […]

[2] = tested on: ovarian tumor; test: Vaccination of ovarian tumor-bearing mice with native or nested epitope; format: in vivo; settings: spleens and lymph nodes, day 50; FIGS. 32, 33
Protocol: Each bar is the mean of three mice, each done in triplicate. P values, comparing FR74-specific responses, were calculated using Tukey-Kramer Multiple Comparisons test.
Each bar is the mean of 3 mice, each done in triplicate. P values, comparing FR74-specific responses or tumor weights, were calculated using Tukey-Kramer Multiple Comparisons test.
Mice were implanted with ovarian tumor and 10 days later were treated with PBS, native epitope FR74 (2150 μg/kg in 100 μL injected at the base of the tail), or nested epitope FR74.4 (5000 μg/kg in 100 μL injected at the base of the tail) over the course of a week. On day 50, the mice were sacrificed and spleen, lymph node, and tumor tissue was harvested. T cell responses and tumor weights were then estimated. The number of FR74-specific T cells in the spleens and lymph nodes was determined (FIG. 32). T cells were estimated using an IFN-γ ELIspot assay testing responses against native FR74 (black bars) or an irrelevant peptide (white bars). In addition, the proliferation of T cells, in response to native FR74 (black bars) or an irrelevant peptide (white bars), was measured in the spleens and lymph nodes (FIG. 33). T cell proliferation was estimated using a tritiated thymidine assay.
In addition, the weight of the greater omentum (a surrogate of total tumor burden) 50 days following last immunization was measured (FIG. 34C).

[3] = tested on: splenocytes; test: Immunization with polypeptide-pulsed DC, splenocyte proliferation; format: in vivo, FVB/N mice; settings: DC pulsed 2 hours; splenocytes at 1 week; FIG. 30
Protocol: FIG. 30. DC pulsed with modified polypeptides are more immunogenic than FR74-pulsed DC. […] Control=DC pulsed with media.
Alternatively, the strategies developed herein can be applied to other fields of immunotherapy. […] In that experiment, bone-marrow derived DC were pulsed with either PBS, FR74 peptide, or FR74.4 peptide for 2 hours. The DC were washed and injected into FVB/N mice.

[4] = tested on: Foxp3^+ T cells; test: Flow cytometry of CD4 T cell lines for FoxP3 expression; format: cell-based, FVB/N mice; settings: FIG. 31
Description: FIG. 31. […] Flow cytometry dot plots of naïve splenocytes, FR74-specific, FR74.4-specific CD4 T cell lines evaluating for FoxP3 expression. Quadrants set at isotype signal, and the lower right quadrant is percent of total cells in lymphocyte gate. T cells were derived from FVB/N mice.

Substance: FR74.4: dual conjugated polypeptide: FR74 nested between Ii-key and DC3 (Ac-LRMK[Ava]KDISYLYRFNWNHCGRARRFYPSYHSTPQRP)
- cytokine release by DC ([1]; FIG. 14): selectively induces expression of IL-1α, IL-6, IL-12p70, IL-13 and TNF-α; also recorded: enhanced the release of IL-1α, IL-6, and IL-12p70
- chemokine levels produced by DC ([1]; FIG. 15): significantly higher levels of the T cell attracting chemokines, CCL7 (MCP-3), CCL1 (KC) CXCL10 (IP-10); also recorded: elevated levels of CCL7, CXCL1, and CXCL10
- immunogenicity as vaccine in tumor bearing mice (IFN-γ ELIspot and proliferation) [2]: more immunogenic than native epitopes
- splenocyte proliferation in response to native FR74 antigen after DC immunization [3]: significantly elevated proliferative response
- expansion of Foxp3+ T cells [4]: blocks expansion of Foxp3^+ T cells
